Tests used:
Type in all cases: cell-based
SF-268 (CNS cancer) = experiment: NCI-60 SRB cytotoxicity screen; conditions: Homo sapiens; SF-268, single dose 10 μM; read-out: growth inhibition (GI%)
SK-MEL-5 (melanoma) = experiment: NCI-60 SRB cytotoxicity screen; conditions: Homo sapiens; SK-MEL-5, single dose 10 μM; read-out: growth inhibition (GI%)
COLO 205 (colon cancer) = experiment: NCI-60 SRB cytotoxicity screen; conditions: Homo sapiens; COLO 205, single dose 10 μM; read-out: growth inhibition (GI%)
RXF 393 (renal cancer) = experiment: NCI-60 SRB cytotoxicity screen; conditions: Homo sapiens; RXF 393, single dose 10 μM; read-out: growth inhibition (GI%)
[1] = system: HOP-62 (non-small cell lung cancer); experiment: NCI-60 SRB cytotoxicity screen; conditions: Homo sapiens; HOP-62, single dose 10 μM; read-out: growth inhibition (GI%)
HCC-2998 (colon cancer) = experiment: NCI-60 SRB cytotoxicity screen; conditions: Homo sapiens; HCC-2998, single dose 10 μM; read-out: growth inhibition (GI%)
OVCAR-8 (ovarian cancer) = experiment: NCI-60 SRB cytotoxicity screen; conditions: Homo sapiens; OVCAR-8, single dose 10 μM; read-out: growth inhibition (GI%)
U251 (CNS cancer) = experiment: NCI-60 SRB cytotoxicity screen; conditions: Homo sapiens, U-251; U251, single dose 10 μM; read-out: growth inhibition (GI%)
MDA-MB-435 (melanoma) = experiment: NCI-60 SRB cytotoxicity screen; conditions: Homo sapiens, MDA-MB-435, read-out: growth inhibition (GI%);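 note: growth inhibition in percent at a single 10 µM dose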
BT-549 (breast cancer) = experiment: NCI-60 SRB cytotoxicity screen; conditions: Homo sapiens; BT-549, single dose 10 μM; read-out: growth inhibition (GI%)
HS 578T (breast cancer) = experiment: NCI-60 SRB cytotoxicity screen; conditions: Homo sapiens, single dose 10 μM, read-out: growth inhibition (GI%)
SW-620 (colon cancer) = experiment: NCI-60 SRB cytotoxicity screen; conditions: Homo sapiens; SW-620, single dose 10 μM; read-out: growth inhibition (GI%)
OVCAR-5 (ovarian cancer) = experiment: NCI-60 SRB cytotoxicity screen; conditions: Homo sapiens; OVCAR-5, single dose 10 μM; read-out: growth inhibition (GI%)
CCRF-CEM (leukemia) = experiment: NCI-60 SRB cytotoxicity screen; conditions: Homo sapiens, single dose 10 μM, read-out: growth inhibition (GI%)
LOX IMVI (melanoma) = experiment: NCI-60 SRB cytotoxicity screen; conditions: Homo sapiens, single dose 10 μM, read-out: growth inhibition (GI%)
SNB-19 (CNS cancer) = experiment: NCI-60 SRB cytotoxicity screen; conditions: Homo sapiens; SNB-19, single dose 10 μM; read-out: growth inhibition (GI%)
SNB-75 (CNS cancer) = experiment: NCI-60 SRB cytotoxicity screen; conditions: Homo sapiens, SNB-75, SNB-75, single dose 10 μM; read-out: growth inhibition (GI%)
786-0 (renal cancer) = experiment: NCI-60 SRB cytotoxicity screen; conditions: Homo sapiens; 786-0, single dose 10 μM; read-out: growth inhibition (GI%)
M14 (melanoma) = experiment: NCI-60 SRB cytotoxicity screen; conditions: Homo sapiens; M14, single dose 10 μM; read-out: growth inhibition (GI%)
[2] = system: NCI-H522 (non-small cell lung cancer); experiment: NCI-60 SRB cytotoxicity screen; conditions: Homo sapiens; NCI-H522, single dose 10 μM; read-out: growth inhibition (GI%)
SN12C (renal cancer) = experiment: NCI-60 SRB cytotoxicity screen; conditions: Homo sapiens, single dose 10 μM, read-out: growth inhibition (GI%)
ACHN (renal cancer) = experiment: NCI-60 SRB cytotoxicity screen; conditions: Homo sapiens, single dose 10 μM, read-out: growth inhibition (GI%)
[3] = system: NCI-H226 (non-small cell lung cancer); experiment: NCI-60 SRB cytotoxicity screen; conditions: Homo sapiens; NCI-H226, single dose 10 μM; read-out: growth inhibition (GI%)
[4] = system: NCI/ADR-RES (ovarian cancer); experiment: NCI-60 SRB cytotoxicity screen; conditions: Homo sapiens, single dose 10 μM, read-out: growth inhibition (GI%)
OVCAR-3 (ovarian cancer) = experiment: NCI-60 SRB cytotoxicity screen; conditions: Homo sapiens; OVCAR-3, single dose 10 μM; read-out: growth inhibition (GI%)
SK-MEL-2 (melanoma) = experiment: NCI-60 SRB cytotoxicity screen; conditions: Homo sapiens; SK-MEL-2, single dose 10 μM; read-out: growth inhibition (GI%)
SF-295 (CNS cancer) = experiment: NCI-60 SRB cytotoxicity screen; conditions: Homo sapiens; SF-295, single dose 10 μM; read-out: growth inhibition (GI%)
K-562 (leukemia) = experiment: NCI-60 SRB cytotoxicity screen; conditions: Homo sapiens; K-652 [sic], single dose 10 μM; read-out: growth inhibition (GI%)
[5] = system: 60 cancer cell lines (NCI); experiment: NCI-60 single-dose screen, overall verdict over the panel; conditions: single dose 10 μM, whole panel
Method: The cytotoxic activity of the synthesized quinoline derivatives was determined by the national cancer institute (NCI, Bethesda, Maryland, USA) against 60 different cancer cell lines at a single high dose (10^−5 M) in the full NCI 60 cell panel using the sulforhodamine B assay for cell viability evaluation. In summary, 5 × 10^3 cells were in 96-well plate and incubated in complete media for 24 h. Cells were treated with 100 μL of media containing each newly synthesized compound. After drug exposure, cells were fixed by replacing media with 150 μL of 10% TCA and incubated at 4 °C for 1 h. The TCA solution was removed, and the cells were washed 5 times with distilled water. Aliquots of 70 μL SRB solution (0.4% w/v) were added and incubated in a dark place at room temperature for 10 min. The plates were washed 3 times with 1% acetic acid and allowed to air-dry overnight. Then, 150 μL of TRIS (10 mM) was added to dissolve protein-bound SRB stain. The absorbance was measured at 540 nm.% Cytotoxicity = [1 − (AVx/AVNC)] × 100where AVx denotes the average absorbance of the sample well and AVNC denotes the average absorbance of the negative control.

[6] = system: A549/ATCC (non-small cell lung cancer); experiment: NCI-60 SRB cytotoxicity screen; conditions: Homo sapiens, single dose 10 μM, read-out: growth inhibition (GI%)
[7] = system: HOP-92 (non-small cell lung cancer); experiment: NCI-60 SRB cytotoxicity screen; conditions: Homo sapiens; HOP-92, single dose 10 μM; read-out: growth inhibition (GI%)
MALME-3M (melanoma) = experiment: NCI-60 SRB cytotoxicity screen; conditions: Homo sapiens, single dose 10 μM, read-out: growth inhibition (GI%)
MOLT-4 (leukemia) = experiment: NCI-60 SRB cytotoxicity screen; conditions: Homo sapiens; MOLT-4, single dose 10 μM; read-out: growth inhibition (GI%)
RPMI-8226 (leukemia) = experiment: NCI-60 SRB cytotoxicity screen; conditions: Homo sapiens; RPMI-8226, single dose 10 μM; read-out: growth inhibition (GI%)
[8] = system: MDA-MB-231/ATCC (breast cancer); experiment: NCI-60 SRB cytotoxicity screen; conditions: Homo sapiens, MDA-MB-231, read-out: growth inhibition (GI%);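 note: growth inhibition in percent at a single 10 µM dose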

Structure (SMILES) | inhibition at 10 µM (SF-268 (CNS cancer)) [%] | inhibition at 10 µM (SK-MEL-5 (melanoma)) [%] | inhibition at 10 µM (COLO 205 (colon cancer)) [%] | inhibition at 10 µM (RXF 393 (renal cancer)) [%] | inhibition at 10 µM [1] [%] | inhibition at 10 µM (HCC-2998 (colon cancer)) [%] | inhibition at 10 µM (OVCAR-8 (ovarian cancer)) [%] | inhibition at 10 µM (U251 (CNS cancer)) [%] | inhibition at 10 µM (MDA-MB-435 (melanoma)) [%] | inhibition at 10 µM (BT-549 (breast cancer)) [%] | inhibition at 10 µM (HS 578T (breast cancer)) [%] | inhibition at 10 µM (SW-620 (colon cancer)) [%] | inhibition at 10 µM (OVCAR-5 (ovarian cancer)) [%] | inhibition at 10 µM (CCRF-CEM (leukemia)) [%] | inhibition at 10 µM (LOX IMVI (melanoma)) [%] | inhibition at 10 µM (SNB-19 (CNS cancer)) [%] | inhibition at 10 µM (SNB-75 (CNS cancer)) [%] | inhibition at 10 µM (786-0 (renal cancer)) [%] | inhibition at 10 µM [2] [%] | inhibition at 10 µM (SN12C (renal cancer)) [%] | further results
CCc1cccc2cc(C=CC(=O)c3ccc(F)cc3)c(Cl)nc12 [Compound 3d, 3-(2-Chloro-8-ethylquinolin-3-yl)-1-(4-fluorophenyl)prop-2-en-1-one] | < 10 | < 10 | < 10 | < 10 | < 10 | < 10 | < 10 | < 10 | < 10 | < 10 | < 10 | < 10 | < 10 | < 10 | < 10 | < 10 | < 10 | < 10 | < 10 | < 10 | inhibition at 10 µM (M14 (melanoma)): < 10%; inhibition at 10 µM (ACHN (renal cancer)): < 10%; inhibition at 10 µM [3]: < 10%; inhibition at 10 µM [4]: < 10%; inhibition at 10 µM (OVCAR-3 (ovarian cancer)): < 10%; inhibition at 10 µM (SK-MEL-2 (melanoma)): < 10%; inhibition at 10 µM (SF-295 (CNS cancer)): < 10%; inhibition at 10 µM (K-562 (leukemia)): < 10%; cytotoxic activity over the cell lines (in words) [5]: low cytotoxic activity; inhibition at 10 µM [6]: < 10%; inhibition at 10 µM [7]: < 10%; inhibition at 10 µM (MALME-3M (melanoma)): < 10%; inhibition at 10 µM (MOLT-4 (leukemia)): < 10%; inhibition at 10 µM (RPMI-8226 (leukemia)): < 10%; inhibition at 10 µM [8]: < 10%
CCc1cccc2cc(C=CC(=O)c3ccc(Br)cc3)c(Cl)nc12 [Compound 3e, 1-(4-Bromophenyl)-3-(2-chloro-8-ethylquinolin-3-yl)prop-2-en-1-one] | < 10 | < 10 | < 10 | < 10 | < 10 | < 10 | < 10 | < 10 | < 10 | < 10 | < 10 | < 10 | < 10 | < 10 | < 10 | < 10 | < 10 | < 10 | < 10 | < 10 | inhibition at 10 µM (M14 (melanoma)): < 10%; inhibition at 10 µM (ACHN (renal cancer)): < 10%; inhibition at 10 µM [3]: < 10%; inhibition at 10 µM [4]: < 10%; inhibition at 10 µM (OVCAR-3 (ovarian cancer)): < 10%; inhibition at 10 µM (SK-MEL-2 (melanoma)): < 10%; inhibition at 10 µM (SF-295 (CNS cancer)): < 10%; inhibition at 10 µM (K-562 (leukemia)): < 10%; cytotoxic activity over the cell lines (in words) [5]: low cytotoxic activity; inhibition at 10 µM [6]: < 10%; inhibition at 10 µM [7]: < 10%; inhibition at 10 µM (MALME-3M (melanoma)): < 10%; inhibition at 10 µM (MOLT-4 (leukemia)): < 10%; inhibition at 10 µM (RPMI-8226 (leukemia)): < 10%; inhibition at 10 µM [8]: < 10%
CCc1cccc2cc(-c3cc(-c4ccc(F)cc4)[nH]c(=O)c3C#N)c(Cl)nc12 [Compound 4d, 4-(2-Chloro-8-ethylquinolin-3-yl)-6-(4-fluorophenyl)-2-oxo-1,2-dihydropyridine-3-carbonitrile] | < 10 | 16.8 | < 10 | < 10 | < 10 | < 10 | < 10 | < 10 | < 10 | 17.8 | < 10 | < 10 | < 10 | < 10 | 15.3 | < 10 | < 10 | < 10 | < 10 | < 10 | inhibition at 10 µM (ACHN (renal cancer)): < 10%; inhibition at 10 µM [3]: 14.3%; inhibition at 10 µM [4]: < 10%; inhibition at 10 µM (OVCAR-3 (ovarian cancer)): < 10%; inhibition at 10 µM (SK-MEL-2 (melanoma)): < 10%; inhibition at 10 µM (SF-295 (CNS cancer)): < 10%; inhibition at 10 µM (K-562 (leukemia)): 27.2%; cytotoxic activity over the cell lines (in words) [5]: mild cytotoxic activity; inhibition at 10 µM [6]: < 10%; inhibition at 10 µM [7]: < 10%; inhibition at 10 µM (MALME-3M (melanoma)): < 10%; inhibition at 10 µM (MOLT-4 (leukemia)): 15%; inhibition at 10 µM (RPMI-8226 (leukemia)): 14%; inhibition at 10 µM [8]: 19.9%
CCc1cccc2cc(-c3cc(-c4ccc(F)cc4)[nH]c(=S)c3C#N)c(Cl)nc12 [Compound 5d, 4-(2-Chloro-8-ethylquinolin-3-yl)-6-(4-fluorophenyl)-2-thioxo-1,2-dihydropyridine-3-carbonitrile] | 21 | 15.3 | < 10 | < 10 | < 10 | < 10 | < 10 | < 10 | < 10 | 12.2 | 18.2 | < 10 | < 10 | < 10 | 12.4 | 10.5 | 39.1 | < 10 | 11.8 | < 10 | inhibition at 10 µM (M14 (melanoma)): < 10%; inhibition at 10 µM (ACHN (renal cancer)): < 10%; inhibition at 10 µM [3]: 25.9%; inhibition at 10 µM [4]: < 10%; inhibition at 10 µM (SK-MEL-2 (melanoma)): < 10%; inhibition at 10 µM (SF-295 (CNS cancer)): 12.3%; inhibition at 10 µM (K-562 (leukemia)): 29.3%; cytotoxic activity over the cell lines (in words) [5]: slight cytotoxic activity; inhibition at 10 µM [6]: < 10%; inhibition at 10 µM [7]: 11.4%; inhibition at 10 µM (MALME-3M (melanoma)): < 10%; inhibition at 10 µM (MOLT-4 (leukemia)): 26.8%; inhibition at 10 µM (RPMI-8226 (leukemia)): 23%; inhibition at 10 µM [8]: 31.2%
